Results: PMC5974162, “Characterization of Ferredoxin-Dependent Biliverdin Reductase PCYA1 Reveals the Dual Function in Retrograde Bilin Biosynthesis and Interaction With Light-Dependent Protochlorophyllide Oxidoreductase LPOR in Chlamydomonas reinhardtii” (Frontiers in Plant Science, 2018)

Target: T1, DtenPHY1 (Dolichomastix tenuilepis, UniProt A0A097CKJ3)
T1 construct: gene PHY; Twin-Strep-tag kept; expressed in Chlamydomonas CC400 cytosol, also in E. coli LMG194/pPL-PCB as control
Test: zinc-dependent fluorescence of SDS-PAGE blot
Type: binding
Details: covalent; in vitro assembly with added PCB, TES pH 8.0, room temperature, ~2 h, dark; also without added PCB

T1 sequence (A0A097CKJ3 entry or part of it): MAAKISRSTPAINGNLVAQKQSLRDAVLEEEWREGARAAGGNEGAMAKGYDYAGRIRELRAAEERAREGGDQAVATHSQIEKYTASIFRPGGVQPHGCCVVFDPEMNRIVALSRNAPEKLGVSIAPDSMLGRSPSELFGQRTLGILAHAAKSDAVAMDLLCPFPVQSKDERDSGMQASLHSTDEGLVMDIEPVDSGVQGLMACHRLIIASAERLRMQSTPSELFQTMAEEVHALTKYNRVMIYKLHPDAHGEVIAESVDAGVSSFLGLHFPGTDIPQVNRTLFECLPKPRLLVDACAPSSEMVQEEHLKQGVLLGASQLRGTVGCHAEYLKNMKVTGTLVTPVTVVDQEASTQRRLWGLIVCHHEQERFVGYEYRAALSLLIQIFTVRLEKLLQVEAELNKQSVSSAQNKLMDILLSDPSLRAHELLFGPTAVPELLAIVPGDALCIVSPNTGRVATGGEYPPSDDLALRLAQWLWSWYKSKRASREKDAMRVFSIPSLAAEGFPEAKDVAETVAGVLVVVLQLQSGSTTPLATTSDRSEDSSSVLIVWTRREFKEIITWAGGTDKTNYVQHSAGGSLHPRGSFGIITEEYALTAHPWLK

CC=C1C(=Cc2[nH]c(C=C3N=C(C=C4NC(=O)C(CC)=C4C)C(C)=C3CCC(=O)O)c(CCC(=O)O)c2C)NC(=O)C1C (stereo not shown) [PCB, phycocyanobilin]
zinc-dependent fluorescence of SDS-PAGE blot: DtenPHY1 purified from Chlamydomonas CC400 covalently binds phycocyanobilin (PCB)
